# Measured values as given in ChEMBL document CHEMBL3217491, “Design, synthesis and biological evaluation of imidazopyridine/pyrimidine-chalcone derivatives as potential anticancer agents” (2010).
# Calls of active or inactive are those of the source. The calls are words filed in the database; no cut-off is given here.
# How the values were obtained:
# PC-3 = assay: Growth inhibition of human PC3 cells after 48 hrs by SRB assay; format: functional; details: PC-3, 48 h
# T47D = assay: Growth inhibition of human T47D cells after 48 hrs by SRB assay; format: functional
# Malme-3M = assay: Growth inhibition of human MALME-3M cells after 48 hrs by SRB assay; format: functional
# MCF7 = assay: Induction of cell cycle arrestin human MCF7 cells assessed as downregulation of cyclin A protein expression at 4 uM by Western blot analysis; format: functional, cell-based
# HL-60(TB) = assay: Growth inhibition of human HL-60(TB) cells after 48 hrs by SRB assay; format: functional; details: HL-60, 48 h
# SR = assay: Growth inhibition of human SR cells after 48 hrs by SRB assay; format: functional
# A549 = assay: Growth inhibition of human A549 cells after 48 hrs by SRB assay; format: functional; details: A549, 48 h
# NCI-H226 = assay: Growth inhibition of human NCI-H226 cells after 48 hrs by SRB assay; format: functional; details: NCI-H226, 48 h
# NCI-H23 = assay: Growth inhibition of human NCI-H23 cells after 48 hrs by SRB assay; format: functional; details: NCI-H23, 48 h
# NCI-H460 = assay: Growth inhibition of human NCI-H460 cells after 48 hrs by SRB assay; format: functional; details: NCI-H460, 48 h
# NCI-H522 = assay: Growth inhibition of human NCI-H522 cells after 48 hrs by SRB assay; format: functional; details: NCI-H522, 48 h
# HCT-116 = assay: Growth inhibition of human HCT116 cells after 48 hrs by SRB assay; format: functional; details: HCT-116, 48 h
# HT-29 = assay: Growth inhibition of human HT-29 cells after 48 hrs by SRB assay; format: functional; details: HT-29, 48 h
# U-251 = assay: Growth inhibition of human U251 cells after 48 hrs by SRB assay; format: functional; details: U-251, 48 h
# IGROV-1 = assay: Growth inhibition of human IGROV1 cells after 48 hrs by SRB assay; format: functional; details: IGROV-1, 48 h
# [1] = Growth inhibition of human OVCAR5 cells after 48 hrs by SRB assay; format: functional; details: OVCAR-5, 48 h
# [2] = Growth inhibition of human NCI-ADR-RES cells after 48 hrs by SRB assay; format: functional
# 786-0 = assay: Growth inhibition of human 786-0 cells after 48 hrs by SRB assay; format: functional; details: 786-0, 48 h
# TK-10 = assay: Growth inhibition of human TK10 cells after 48 hrs by SRB assay; format: functional; details: TK-10, 48 h
# [3] = Growth inhibition of human UO31 cells after 48 hrs by SRB assay; format: functional; details: UO-31, 48 h
smiles,measurement,setting,value
COc1ccc(C(=O)/C=C/c2c(C(F)(F)F)nc3ccccn23)cc1OC,GI50,PC-3,2730 nM
same,GI50,T47D,1430 nM
same,GI50,Malme-3M,6690 nM
same,inhibition,MCF7,inactive
same,GI50,HL-60(TB),1520 nM
same,GI50,SR,440 nM
same,GI50,A549,2800 nM
same,GI50,NCI-H226,4550 nM
same,GI50,NCI-H23,2370 nM
same,GI50,NCI-H460,680 nM
same,GI50,NCI-H522,5730 nM
same,GI50,HCT-116,840 nM
same,GI50,HT-29,1480 nM
same,GI50,U-251,1100 nM
same,GI50,IGROV-1,440 nM
same,GI50,[1],3790 nM
same,GI50,[2],1570 nM
same,GI50,786-0,2870 nM
same,GI50,TK-10,3780 nM
same,GI50,[3],1440 nM
